# Test results reported in patent US12194021B2, “Modified herbal compositions for neuromodulation” (University of Southern California, priority 2021, dated 2025).
# Marks after values point to notes of the source that are not given here.
# Assays:
# Water solubility = format: physicochemical; conditions: compared with natural DHM
# TG-mice [1] = test: Elevated plus maze (EPM), anxiety in TG-mice; format: in vivo; conditions: 2 mg/kg, 3 months
# From the text: 2) Whole-Cell Patch-Clamp Recordings from Brain Slices. Transverse slices (400 lm) of dorsal hippocampus were obtained from wt and TG-SwDI mice (male, 20 months old) using a vibratome (VT 100; Technical Products International). Slices were perfused continuously with artificial CSF (ACSF) composed of the following (in mM): 125 NaCl, 2.5 KCl, 2 CaCl2, 2 MgCl2, 26 NaHCO3, and 10 D-glucose. The ACSF was bubbled continuously with 95% O2/5% CO2 to ensure adequate oxygenation of slices and a pH of 7.4 and kept at 34±0.5° C. for perfusion. TTX (0.5 μM), APV (40 μM), CNQX (10 μM), and CGP54626 (1 μM, GABABR antagonist) were added to ACSF to pharmacologically isolate GABAAR-mediated mIPSCs. […] Animals were placed on the central area of the maze, tested for 5 min and video recorded. The following measures were scored: number of entries into open arms, closed arms, or center platform and time spent in each of these areas. […]
# 6) The elevated plus maze assay (EPM) was performed in a quiet and dark room with only a low power red light. […] were placed on the central area of the maze, and their behavior video recorded for 5 min. The number of entries into open arms, closed arms, or center platform and time spent in each of these areas were scored during off-line analysis. […]
# Locomotor activity was assayed with open field test. Running distance is one of the parameters quantifying locomotor activity (FIG. 4A). […]
# TG-mice [2] = test: Novel context recognition (NCR); format: in vivo; conditions: 1 mg/kg oral, 3 months, untreated TG 49.2±2.6%
# Method: Novel context recognition (NCR): Day 1-3 was Habituation (once/day). Two contexts (containers) A and B with similar field area were very different in shape. Context A was a rectangular, Context B was a circular container. The containers were open at the top with bedding to minimize stress and with video camera on top to record animal behavior. Each animal was placed in Context A without toys for 5 min, then back to home cage for 30 min. Then the animal was placed in Context B without toys for 5 min.
# Day 4 was for Familiarization: Two different sets of toys were used as the familiar objects referred to as FO1 and FO2 respectively. […]
# Day 5 (24 h from familiarization): Retention Trials was performed to determine the memory retention of each animal for familiarized objects. […] The test was videotaped and analyzed offline. The time spent exploring the familiar object (FO1) and exchanged object (FO2) were calculated where exploration equals touching the object with nose or paws or sniffing within 1.5 cm of the object. […]
# Mice were divided into four groups: (1) C57BL/6 wt male mice were treated with oral administration of 2% sucrose; (2) C57B1/6 wt male mice with oral administration of 1 mg/kg D-P in 2% sucrose; (3) TG-mice with oral administration of 2% sucrose; and (4) TG-mice with 1 mg/kg D-P in 2% sucrose. […] Next, we evaluated NCR (FIG. 3C). The RI was calculated.
# GABAARs = test: Whole-cell voltage-clamped recordings from hippocampal DGCs in slices (Itonic, mIPSCs); format: cell-based, rats; conditions: for GABAergic Itonic: basal Itonic 20 pA
# From the text: 2) Whole-Cell Patch-Clamp Recordings from Brain Slices. Transverse slices (400 lm) of dorsal hippocampus were obtained from wt and TG-SwDI mice (male, 20 months old) using a vibratome (VT 100; Technical Products International). Slices were perfused continuously with artificial CSF (ACSF) composed of the following (in mM): 125 NaCl, 2.5 KCl, 2 CaCl2, 2 MgCl2, 26 NaHCO3, and 10 D-glucose. The ACSF was bubbled continuously with 95% O2/5% CO2 to ensure adequate oxygenation of slices and a pH of 7.4 and kept at 34±0.5° C. for perfusion. TTX (0.5 μM), APV (40 μM), CNQX (10 μM), and CGP54626 (1 μM, GABABR antagonist) were added to ACSF to pharmacologically isolate GABAAR-mediated mIPSCs. Patch electrodes were filled with internal solution containing the following (in mM): 137 CsCl, 2 MgCl2, 1 CaCl2, 11 EGTA, 10 HEPES, and 3 ATP, pH adjusted to 7.30 with CsOH. Recordings targeted dentate gyms granule cells (DGCs) of hippocampal slices. Voltage-clamp whole-cell recording was performed using a patch clamp amplifier 3) EPM: All animals were tested anxiety levels on EPM. Animals were placed on the central area of the maze, tested for 5 min and video recorded. The following measures were scored: number of entries into open arms, closed arms, or center platform and time spent in each of these areas. Data were reported as % of number of entries in arms, % of time spent in different entries, and number of total entries.
# To evaluate whether DHM-Piperidine Complex (D-P) can still potentiate GABAARs, whole-cell voltage-clamped recordings from hippocampal DGCs in slices were performed to test D-P and compared with DHM effects on GABAergic tonic current (Itonic) and miniature inhibitory postsynaptic currents (mIPSCs). […] Compared with DHM enhancing GABAergic Itonic from 20 pA (basal Itonic)→28 pA→31 pA→52 pA→55 pA, D-P enhancing GABAergic Itonic from 20 pA (basal Itonic)→35 pA→42 pA →65 pA→70 pA (Table 1).
substance,measurement,setting,value
"piperidin-1-ium (2R,3R)-2-(3,4-dihydroxy-5-oxidophenyl)-3,5-dihydroxy-4-oxochroman-7-olate [D-P]",water solubility,Water solubility,can be dissolved into water
same,time in open and closed arms (EPM),TG-mice [1],spent a similar amount of time in each arm
same,"Recognition Index (RI), novel context",TG-mice [2],reversed the RI in TG-mice
same,"Itonic, percent in brackets (increase over basal)",GABAARs; 0.1 μM,(75%)*
same,mIPSCs (area potentiated),GABAARs; 0.1 μM,16.7%*
same,GABAergic Itonic,GABAARs; 0.1 μM,35 pA
same,"Itonic, percent in brackets (increase over basal)",GABAARs; 0.3 μM,(110%)*
same,mIPSCs (area potentiated),GABAARs; 0.3 μM,23.3%*
same,GABAergic Itonic,GABAARs; 0.3 μM,42 pA
same,"Itonic, percent in brackets (increase over basal)",GABAARs; 1 μM,(225%)*
same,mIPSCs (area potentiated),GABAARs; 1 μM,100.0%*
same,GABAergic Itonic,GABAARs; 1 μM,65 pA
same,"Itonic, percent in brackets (increase over basal)",GABAARs; 10 μM,(250%)*
same,mIPSCs (area potentiated),GABAARs; 10 μM,133.3%*
same,GABAergic Itonic,GABAARs; 10 μM,70 pA
